ChEMBL document CHEMBL2163239, “Inhibitors of human immunodeficiency virus type 1 (HIV-1) attachment 6. Preclinical and human pharmacokinetic profiling of BMS-663749, a phosphonooxymethyl prodrug of the HIV-1 attachment inhibitor 2-(4-benzoyl-1-piperazinyl)-1-(4,7-dimethoxy-1H-pyrrolo[2,3-c]pyridin-3-yl)-2-oxoethanone …” (J Med Chem, 2012)

Legend:
[1] = Aqueous solubility of compound at pH 8.9; type: physicochemical
[2] = Aqueous solubility of compound at pH 5.4; type: physicochemical
[3] = Aqueous solubility of compound at pH 1.4 after 18 to 24 hrs by RP-HPLC analysis; type: physicochemical
[4] = Lipophilicity, log D of compound in octanol-PBS mixture at pH 6.5 by HPLC-UV analysis; type: physicochemical
[5] = Clearance in Sprague-Dawley rat at 1.4 mg/kg, iv; type: ADME, organism-based; design: dose 1.4 mg/kg, route intravenous; details: in vivo
[6] = Volume of distribution at steady state in Sprague-Dawley rat at 1.4 mg/kg, iv; type: ADME, organism-based; design: dose 1.4 mg/kg, route intravenous; details: in vivo, read-out: Vdss
[7] = Half life in Sprague-Dawley rat at 1.4 mg/kg, iv; type: ADME, organism-based; design: dose 1.4 mg/kg, route intravenous; details: in vivo
[8] = Mean residence time in Sprague-Dawley rat at 1.4 mg/kg, iv; type: ADME, organism-based; design: dose 1.4 mg/kg, route intravenous; details: in vivo
Rattus norvegicus [9] = assay: Absolute oral bioavailability in Sprague-Dawley rat assessed as BMS-488043 level at 7.9 mg/kg; type: ADME, organism-based; details: in vivo
Rattus norvegicus [10] = assay: Cmax in Sprague-Dawley rat assessed as BMS-488043 level at 7.9 mg/kg, po; type: ADME, organism-based; design: dose 7.9 mg/kg, route oral; details: in vivo
Rattus norvegicus [11] = assay: Tmax in Sprague-Dawley rat assessed as BMS-488043 level at 7.9 mg/kg, po; type: ADME, organism-based; design: dose 7.9 mg/kg, route oral; details: in vivo
Rattus norvegicus [12] = assay: AUC (total) in Sprague-Dawley rat assessed as BMS-488043 level at 7.9 mg/kg, po; type: ADME, organism-based, Plasma; design: dose 7.9 mg/kg, route oral; details: in vivo
Rattus norvegicus [13] = assay: Half life in Sprague-Dawley rat assessed as BMS-488043 level at 7.9 mg/kg, po; type: ADME, organism-based; design: dose 7.9 mg/kg, route oral; details: in vivo
[14] = Clearance in beagle dog at 1.2 mg/kg, iv; type: ADME, organism-based, Canis lupus familiaris; design: dose 1.2 mg/kg, route intravenous; details: in vivo
[15] = Volume of distribution at steady state in beagle dog at 1.2 mg/kg, iv; type: ADME, organism-based, Canis lupus familiaris; design: dose 1.2 mg/kg, route intravenous; details: in vivo, read-out: Vdss
[16] = Half life in beagle dog at 1.2 mg/kg, iv; type: ADME, organism-based, Canis lupus familiaris; design: dose 1.2 mg/kg, route intravenous; details: in vivo
[17] = Mean residence time in beagle dog at 1.2 mg/kg, iv; type: ADME, organism-based, Canis lupus familiaris; design: dose 1.2 mg/kg, route intravenous; details: in vivo
Canis familiaris [18] = assay: Absolute oral bioavailability in beagle dog assessed as BMS-488043 level at 6.6 mg/kg; type: ADME, organism-based, Canis lupus familiaris; details: in vivo
Canis familiaris [19] = assay: Cmax in beagle dog assessed as BMS-488043 level at 6.6 mg/kg, po; type: ADME, organism-based, Canis lupus familiaris; design: dose 6.6 mg/kg, route oral; details: in vivo
Canis familiaris [20] = assay: Tmax in beagle dog assessed as BMS-488043 level at 6.6 mg/kg, po; type: ADME, organism-based, Canis lupus familiaris; design: dose 6.6 mg/kg, route oral; details: in vivo
Canis familiaris [21] = assay: AUC (total) in beagle dog assessed as BMS-488043 level at 6.6 mg/kg, po; type: ADME, organism-based, Canis lupus familiaris, Plasma; design: dose 6.6 mg/kg, route oral; details: in vivo
Canis familiaris [22] = assay: Half life in beagle dog assessed as BMS-488043 level at 6.6 mg/kg, po; type: ADME, organism-based, Canis lupus familiaris; design: dose 6.6 mg/kg, route oral; details: in vivo
[23] = Clearance in cynomolgus monkey at 1.3 mg/kg, iv; type: ADME, organism-based, Macaca fascicularis; design: dose 1.3 mg/kg, route intravenous; details: in vivo
[24] = Volume of distribution at steady state in cynomolgus monkey at 1.3 mg/kg, iv; type: ADME, organism-based, Macaca fascicularis; design: dose 1.3 mg/kg, route intravenous; details: in vivo, read-out: Vdss
[25] = Half life in cynomolgus monkey at 1.3 mg/kg, iv; type: ADME, organism-based, Macaca fascicularis; design: dose 1.3 mg/kg, route intravenous; details: in vivo
[26] = Mean residence time in cynomolgus monkey at 1.3 mg/kg, iv; type: ADME, organism-based, Macaca fascicularis; design: dose 1.3 mg/kg, route intravenous; details: in vivo
Cynomolgus monkey [27] = assay: Absolute oral bioavailability in cynomolgus monkey assessed as BMS-488043 level at 7.1 mg/kg; type: ADME, organism-based, Macaca fascicularis; details: in vivo
Cynomolgus monkey [28] = assay: Cmax in cynomolgus monkey assessed as BMS-488043 level at 7.1 mg/kg, po; type: ADME, organism-based, Macaca fascicularis; design: dose 7.1 mg/kg, route oral; details: in vivo
Cynomolgus monkey [29] = assay: Tmax in cynomolgus monkey assessed as BMS-488043 level at 7.1 mg/kg, po; type: ADME, organism-based, Macaca fascicularis; design: dose 7.1 mg/kg, route oral; details: in vivo
Cynomolgus monkey [30] = assay: AUC (total) in cynomolgus monkey assessed as BMS-488043 level at 7.1 mg/kg, po; type: ADME, organism-based, Macaca fascicularis, Plasma; design: dose 7.1 mg/kg, route oral; details: in vivo
Cynomolgus monkey [31] = assay: Half life in cynomolgus monkey assessed as BMS-488043 level at 7.1 mg/kg, po; type: ADME, organism-based, Macaca fascicularis; design: dose 7.1 mg/kg, route oral; details: in vivo
[32] = Cmax in healthy human at 25 mg, po administered with high fat meal; type: ADME, organism-based; design: dose 25 mg, route oral; details: in vivo
[33] = Cmax in healthy human at 50 mg, po administered with high fat meal; type: ADME, organism-based; design: dose 50 mg, route oral; details: in vivo
[34] = Cmax in healthy human at 100 mg, po administered with high fat meal; type: ADME, organism-based; design: dose 100 mg, route oral; details: in vivo
[35] = Cmax in healthy human at 200 mg, po administered with high fat meal; type: ADME, organism-based; design: dose 200 mg, route oral; details: in vivo
[36] = Cmax in healthy human at 400 mg, po administered with high fat meal; type: ADME, organism-based; design: dose 400 mg, route oral; details: in vivo
[37] = Cmax in healthy human at 800 mg, po administered with high fat meal; type: ADME, organism-based; design: dose 800 mg, route oral; details: in vivo
[38] = Tmax in healthy human at 25 mg, po administered with high fat meal; type: ADME, organism-based; details: in vivo
[39] = Tmax in healthy human at 50 mg, po administered with high fat meal; type: ADME, organism-based; details: in vivo
[40] = Tmax in healthy human at 100 mg, po administered with high fat meal; type: ADME, organism-based; details: in vivo
[41] = Tmax in healthy human at 200 mg, po administered with high fat meal; type: ADME, organism-based; details: in vivo
[42] = Tmax in healthy human at 400 mg, po administered with high fat meal; type: ADME, organism-based; details: in vivo
[43] = Tmax in healthy human at 800 mg, po administered with high fat meal; type: ADME, organism-based; details: in vivo
[44] = Half life in healthy human at 25 mg, po administered with high fat meal; type: ADME, organism-based; details: in vivo
[45] = Half life in healthy human at 50 mg, po administered with high fat meal; type: ADME, organism-based; details: in vivo
[46] = Half life in healthy human at 100 mg, po administered with high fat meal; type: ADME, organism-based; details: in vivo
[47] = Half life in healthy human at 200 mg, po administered with high fat meal; type: ADME, organism-based; details: in vivo
[48] = Half life in healthy human at 400 mg, po administered with high fat meal; type: ADME, organism-based; details: in vivo
[49] = Half life in healthy human at 800 mg, po administered with high fat meal; type: ADME, organism-based; details: in vivo
[50] = AUC (infinity) in healthy human at 25 mg, po administered with high fat meal; type: ADME, organism-based; design: dose 25 mg, time infinity, route oral; details: plasma
[51] = AUC (infinity) in healthy human at 50 mg, po administered with high fat meal; type: ADME, organism-based; design: dose 50 mg, time infinity, route oral; details: plasma
[52] = AUC (infinity) in healthy human at 100 mg, po administered with high fat meal; type: ADME, organism-based; design: dose 100 mg, route oral, time infinity; details: plasma
[53] = AUC (infinity) in healthy human at 200 mg, po administered with high fat meal; type: ADME, organism-based; design: dose 200 mg, route oral, time infinity; details: plasma
[54] = AUC (infinity) in healthy human at 400 mg, po administered with high fat meal; type: ADME, organism-based; design: dose 400 mg, time infinity, route oral; details: plasma
[55] = AUC (infinity) in healthy human at 800 mg, po administered with high fat meal; type: ADME, organism-based; design: dose 800 mg, time infinity, route oral; details: plasma
Plasma [56] = assay: Plasma concentration in healthy human at 25 mg, po administered with high fat meal measured after 12 hrs; type: ADME, organism-based; details: in vivo, BLD = below limit of detection
Plasma [57] = assay: Plasma concentration in healthy human at 50 mg, po administered with high fat meal measured after 12 hrs; type: ADME, organism-based; details: in vivo, BLD = below limit of detection
[58] = Plasma concentration in healthy human at 100 mg, po administered with high fat meal measured after 12 hrs; type: ADME, organism-based
[59] = Plasma concentration in healthy human at 200 mg, po administered with high fat meal measured after 12 hrs; type: ADME, organism-based
[60] = Plasma concentration in healthy human at 400 mg, po administered with high fat meal measured after 12 hrs; type: ADME, organism-based
[61] = Plasma concentration in healthy human at 800 mg, po administered with high fat meal measured after 12 hrs; type: ADME, organism-based
[62] = Dissociation constant, pKa of compound; type: physicochemical

COc1cnc(OC)c2c1c(C(=O)C(=O)N1CCN(C(=O)c3ccccc3)CC1)cn2COP(=O)(O)O.NCCCC[C@H](N)C(=O)O
solubility [1]: > 12000 µg/mL | solubility [2]: > 12000 µg/mL | solubility [3]: 220 µg/mL | logD [4]: < -1 | clearance [5]: 14 mL/min/kg | Vd [6]: 0.12 L/kg | half-life [7]: 9.6 min | MRT [8]: 8.4 min | F (Rattus norvegicus [9]): 62% | Cmax (Rattus norvegicus [10]): 3.94 µM | Tmax (Rattus norvegicus [11]): 49.8 min | AUC (Rattus norvegicus [12]): 13.168 µM·h | t1/2 (Rattus norvegicus [13]): 90 min | clearance [14]: 70 mL/min/kg | Vd [15]: 0.3 L/kg | half-life [16]: 9 min | MRT [17]: 4.2 min | F (Canis familiaris [18]): 93% | Cmax (Canis familiaris [19]): 14 µM | Tmax (Canis familiaris [20]): 15 min | AUC (Canis familiaris [21]): 82.844 µM·h | t1/2 (Canis familiaris [22]): 246 min | clearance [23]: 4.4 mL/min/kg | Vd [24]: 0.048 L/kg | half-life [25]: 60 min | MRT [26]: 10.8 min | F (Cynomolgus monkey [27]): 67% | Cmax (Cynomolgus monkey [28]): 16.4 µM | Tmax (Cynomolgus monkey [29]): 49.8 min | AUC (Cynomolgus monkey [30]): 34.183 µM·h | t1/2 (Cynomolgus monkey [31]): 288 min | Cmax [32]: 784 ng/mL | Cmax [33]: 1370 ng/mL | Cmax [34]: 3650 ng/mL | Cmax [35]: 8420 ng/mL | Cmax [36]: 12900 ng/mL | Cmax [37]: 26800 ng/mL | Tmax [38]: 30 min | Tmax [39]: 30 min | Tmax [40]: 30 min | Tmax [41]: 30 min | Tmax [42]: 37.8 min | Tmax [43]: 60 min | half-life [44]: 60 min | half-life [45]: 84 min | half-life [46]: 114 min | half-life [47]: 402 min | half-life [48]: 780 min | half-life [49]: 660 min | AUC(0-inf) [50]: 1160 ng·h/mL | AUC(0-inf) [51]: 2150 ng·h/mL | AUC(0-inf) [52]: 5730 ng·h/mL | AUC(0-inf) [53]: 14200 ng·h/mL | AUC(0-inf) [54]: 26200 ng·h/mL | AUC(0-inf) [55]: 64100 ng·h/mL | Cp (Plasma [56]): BLD | Cp (Plasma [57]): BLD | concentration at 12 h [58]: 12 ng/mL | concentration at 12 h [59]: 33 ng/mL | concentration at 12 h [60]: 59 ng/mL | concentration at 12 h [61]: 150 ng/mL | pKa [62]: 2.2
